In the oligonucleotide strings, read from the 5' end, every base follows the letter of its sugar. An asterisk marks phosphorothioate; unmarked linkages are phosphodiester. Other units and linkages are bracketed, terminal groups are in braces. A string of capitals states the bases alone. e = 2'-O-(2-methoxyethyl) (MOE); k = constrained ethyl (cEt); [5mC] = 5-methylcytosine; d = 2'-deoxy (DNA); f = 2'-fluoro
Legend:
EGFR = EGFR (Homo sapiens, UniProt P00533); assay: Competitive NanoBRET binding assay; set-up: made in house; host or cells: HEK293 cells; conditions: Competitive BRET vs 10 nM AF594-labeled 766636; Table 6
Procedure: NanoBRET (bioluminescence resonance energy transfer) binding assays were performed as described in Vickers and Crooke. PLOS One, 11(8), (2016). An EGFR NLuc construct was prepared by first amplifying human EGFR from the full length cDNA clone (Origene RC217223) with forward PCR primer 5′-[…]-3′ (SEQ ID NO: 1) and reverse PCR primer 5′-[…] (SEQ ID NO: 2). The amplified product was ligated into the NheI and XhoI sites of the NanoLuc expression vector pFC32K Nluc CMV-Neo (Promega). Protein was expressed in HEK293 cells and isolated using Protein G magnetic beads. For competitive BRET, the Alexafluor594-labeled modified oligonucleotide 766636 was diluted into water in opaque white 96-well plates at 10 nM and competed with 0.1-10,000 nM of unlabeled modified oligonucleotide. […] of 2× binding buffer containing […] (relative luminescence units) beads/well was added and plates were shaken for 10 minutes at room temperature. Nanoluciferase activity and BRET were measured in a Glowmax Discover plate reader and EC50 values, shown in the tables below, were calculated using GraphPad Prism. For direct BRET, Alexafluor594 modified nucleotides were diluted at 0.1-10,000 nM and experiments were performed as described above.

EGF-EGFR signaling = assay: EGFR signaling western blot (p-EGFR, p-ERK), A431 cells; type: cell-based; conditions: 2 μM for 16 hours
Procedure: In order to test the effects of a PS-ASO on EGFR signaling, A431 cells were incubated with compound no. 116847 or no PS-ASO compound for 16 hours. All cells were then treated with EGF prior to being subjected to the pulse-chase protocol described above. Cell lysates were run on a SDS-PAGE gel and analyzed by sequential western blot for phosphorylated EGFR (P-EGFR), total EGFR (T-EGFR), phosphorylated ERK (P-ERK), and total ERK (T-ERK) using the antibodies described above for EGFR, 4370 for P-ERK (Cell Signaling Technology), and 4695 for T-ERK (Cell Signaling Technology).
110080, 25690, 25699, 395251, or 395254 at 2 μM for 16 hours prior to carrying out the pulse-chase experiment described above.

| Substance | EC50 (EGFR) [nM] | EGFR signaling (EGF-EGFR signaling) |
| --- | --- | --- |
| AACGAGGTACTGTGTAAGTC (sugars from the 5' end f5 d10 f5, all phosphorothioate, methylation of C and T or U not given here) [compound 1147369] | 2630 |  |
| AAGCAGTTGGTGGTGC (sugars from the 5' end k3 d10 k3, all phosphorothioate, methylation of C not given here) [compound 999005] | 39.1 |  |
| AATCTCCTTGCTGTATTTGT (sugars from the 5' end f5 d10 f5, all phosphorothioate, methylation of C and T or U not given here) [compound 1147334, 5-10-5 2′-F gapmer, phosphorothioate] | 4370 |  |
| ACACGGTATTGCCCTTGAAA (sugars from the 5' end e5 d10 e5, all phosphorothioate, methylation of C not given here) [compound 110128, 5-10-5 2′-MOE gapmer, phosphorothioate] | 2280 |  |
| ACCCAATTCAGAAGGAAGGA (sugars from the 5' end e5 d10 e5, all phosphorothioate, methylation of C not given here) [compound 476366, 5-10-5 2′-MOE gapmer, phosphorothioate] | 2240 |  |
| AGGATGCATTGCTGAC (sugars from the 5' end k3 d10 k3, all phosphorothioate, methylation of C not given here) [compound 999006] | 1710 |  |
| AGTTGTCATGGATGAC (sugars from the 5' end k3 d10 k3, all phosphorothioate, methylation of C not given here) [compound 999003] | 2300 |  |
| ATATTGCATCAGATCTCAAT (sugars from the 5' end f5 d10 f5, all phosphorothioate, methylation of C and T or U not given here) [compound 1147370] | 4650 |  |
| AUAAUCTTCCAGGGCCACAA (sugars from the 5' end f5 d10 f5, all phosphorothioate, methylation of C not given here) [compound 1147360, 5-10-5 2′-F gapmer, phosphorothioate] | 108 |  |
| AesGesTes^mCesTesAdsGdsGdsGdsTds^mCdsAds^mCdsAdsAdsTes^mCesTesGesGe (antisense eA*eG*eT*e[5mC]*eT*dA*dG*dG*dG*dT*d[5mC]*dA*d[5mC]*dA*dA*eT*e[5mC]*eT*eG*eG) [compound 25699] |  | not be impacted |
| CAGCAGGCAACTGTCGCTGA (sugars from the 5' end e5 d10 e5, all phosphorothioate, methylation of C not given here) [compound 462026, 5-10-5 2′-MOE gapmer, phosphorothioate] | 670 |  |
| CCTTCCACAATGCCAA (sugars from the 5' end k3 d10 k3, all phosphorothioate, methylation of C not given here) [compound 999002, 3-10-3 cEt gapmer, phosphorothioate] | 633 |  |
| CCTTCCCTGAAGGTTCCTCC (sugars from the 5' end f5 d10 f5, all phosphorothioate, methylation of C and T or U not given here) [compound 804856, 5-10-5 2′-F gapmer, phosphorothioate] | 2750 |  |
| CTAACATGCAATACTGCAGA (sugars from the 5' end e5 d10 e5, all phosphorothioate, methylation of C not given here) [compound 395257, 5-10-5 2′-MOE gapmer, phosphorothioate] | 2630 |  |
| CTGATGATCTGCAGGTTTTC (sugars from the 5' end f5 d10 f5, all phosphorothioate, methylation of C and T or U not given here) [compound 1147367] | 114 |  |
| CTTTCCAGAGGGGCCA (sugars from the 5' end k3 d10 k3, all phosphorothioate, methylation of C not given here) [compound 998998, 3-10-3 cEt gapmer, phosphorothioate] | 7.25 |  |
| CUGUUGGGATATTTTAGCCU (sugars from the 5' end f5 d10 f5, all phosphorothioate, methylation of C not given here) [compound 1147366] | 87.2 |  |
| GACTGTGGTCATGAGC (sugars from the 5' end k3 d10 k3, all phosphorothioate, methylation of C not given here) [compound 999001] | 2340 |  |
| GAGTCAGTATCCCAGTGTCT (sugars from the 5' end f5 d10 f5, all phosphorothioate, methylation of C and T or U not given here) [compound 1147314, 5-10-5 2′-F gapmer, phosphorothioate] | 218 |  |
| GGCCATCACGCCACAG (sugars from the 5' end k3 d10 k3, all phosphorothioate, methylation of C not given here) [compound 998997, 3-10-3 cEt gapmer, phosphorothioate] | 2800 |  |
| TAAGTACTACTGGGCCATGG (sugars from the 5' end e5 d10 e5, all phosphorothioate, methylation of C not given here) [compound 324568, 5-10-5 2′-MOE gapmer, phosphorothioate] | 648 |  |
| TCCACAGTCTTCTGGG (sugars from the 5' end k3 d10 k3, all phosphorothioate, methylation of C not given here) [compound 998999, 3-10-3 cEt gapmer, phosphorothioate] | 214 |  |
| TCGTCTGTGCATCTCTCCTG (sugars from the 5' end f5 d10 f5, all phosphorothioate, methylation of C and T or U not given here) [compound 1147291, 5-10-5 2′-F gapmer, phosphorothioate] | 165 |  |
| TGGCAGTGATGGCATG (sugars from the 5' end k3 d10 k3, all phosphorothioate, methylation of C not given here) [compound 999000] | 1400 |  |
| TGGTAATCCACTTTCAGAGG (sugars from the 5' end e5 d10 e5, all phosphorothioate, methylation of C not given here) [compound 404071, 5-10-5 2′-MOE gapmer, phosphorothioate] | 3140 |  |
| TTCTGGGCAGCCCCAC (sugars from the 5' end k3 d10 k3, all phosphorothioate, methylation of C not given here) [compound 998996, 3-10-3 cEt gapmer, phosphorothioate] | 1430 |  |
| TTTTGGCAAAGTAATCGTCC (sugars from the 5' end e5 d10 e5, all phosphorothioate, methylation of C not given here) [compound 286529, 5-10-5 2′-MOE gapmer, phosphorothioate] | 1840 |  |
| ^mCesGesTes^mCesGesTds^mCdsGdsTds^mCdsAdsTds^mCds^mCdsTds^mCesGesTes^mCes^mCe (antisense e[5mC]*eG*eT*e[5mC]*eG*dT*d[5mC]*dG*dT*d[5mC]*dA*dT*d[5mC]*d[5mC]*dT*e[5mC]*eG*eT*e[5mC]*e[5mC]) [compound 110080] |  | not be impacted |
| ^mCes^mCesAesGesGes^mCdsTdsGdsGdsTdsTdsAdsTdsGdsAds^mCesTes^mCesAesGe (antisense e[5mC]*e[5mC]*eA*eG*eG*d[5mC]*dT*dG*dG*dT*dT*dA*dT*dG*dA*e[5mC]*eT*e[5mC]*eA*eG) [compound 395251] |  | not be impacted |
